# Test results: ChEMBL document CHEMBL3507680, “University of Dundee, Gates Library screen for HepG2 cell viability”
# Assay: Human HepG2 cell viability assay in 384 well format
# Format: toxicity, cell-based
# Parameters: dose 125 nL, time 70.5 hour; concentration not given beside the values
# Conditions: HepG2 cells, read-out: Inhibition
row,Compound,cytotoxicity at 70.5 h [%]
1,CC(C)C1CN(C(=O)c2ccc(N3CCCC3)nc2)CCS1 (stereo not given),-8.6
2,CC(C)Oc1cccc(CNC(Cc2ccsc2)c2nccs2)c1 (stereo not given),-2.9
3,CC(C)N(CCO)C(=O)c1cc(COc2ccc3c(c2)CCCC3)on1,-10.1
4,Cc1ccc(C2CC(=O)NCc3nc(N)sc32)cc1C (stereo not given),-5.03
5,O=C(CC1CC1)N1CCc2ncc(CN3CCOCC3)n2CC1,-13.3
6,Cc1noc(C)c1CN1C[C@@H](OCC(=O)N(C)C)[C@H]2OCCC[C@H]21,-9.4
7,Cc1cc(C[S+]([O-])Cc2ccccc2F)no1 (stereo not given),16.6
8,CCc1cc(C(=O)N[C@@H]2CC[C@@H](N3CCOCC3)[C@@H]2O)no1,-4.39
9,Clc1cccc(N2CCC(NCc3cc[nH]n3)C2)c1 (stereo not given),3.22
10,Cc1cc(C2CCCN2Cc2nc3c(cnn3C)c(=O)[nH]2)on1 (stereo not given),-8.83
11,CNC(=O)CN1C(=O)CCC12CCCN(Cc1ccccn1)C2 (stereo not given),2.52
12,CCc1cc(C(=O)N2CCC3(CCCN(CC4CC4)C3=O)C2)cs1 (stereo not given),6.71
13,Cc1noc(C2CCN(C(=O)c3cc(Br)ccc3F)CC2)n1,-2.54
14,Cc1cnc(N2CCCC3(COCCN(c4ccc(C)nn4)C3)C2)nc1 (stereo not given),-2.56
15,CN(c1ncc(S(N)(=O)=O)s1)C1CCC1,-9.06
16,O=C(Cc1ccsc1)N1CCC(n2nc(-c3ccco3)ccc2=O)CC1,1.25
17,COc1cc(C2CC(=O)NCc3nc4sccn4c32)cc(OC)c1O (stereo not given),-13.6
18,CCOCC1CN(CCOCc2ccccc2)Cc2c1cnn2C (stereo not given),-3.18
19,CCc1nnc2n1CCN(CC(=O)Nc1cc(C)on1)C2,0.374
20,CC(O)CN1CCC(CN(C)Cc2cc(F)cc3cccnc23)CC1 (stereo not given),-2.25
21,CCOC(C)C(=O)Nc1ccc2c(ccn2CC)c1 (stereo not given),1.36
22,CC(C)c1nc(CN2CCN(Cc3ccccn3)CC2)cs1,-3.18
23,Cn1c(CCCNc2nccnc2C#N)nc2ccccc21,1.96

row,Compound,cytotoxicity at 70.5 h [%]
1,O=C(Cc1cccs1)NCC1COCc2c(-c3ccoc3)nnn2C1 (stereo not given),-9.17
2,COc1ccc(Cl)cc1C(C(=O)O)N(C)Cc1ccon1 (stereo not given),11.7
3,CC(C)(C)OC(=O)N1CSC[C@@H]1C(=O)NCc1ccsc1,-1.79
4,COCCOc1ccc(CNCC2CNc3cc(C)nn3C2)cn1 (stereo not given),-4.87
5,O=C(NCCCNc1ccc(C(F)(F)F)cn1)c1ccc2c(c1)OCO2,-9.51
6,CN(C)C(=O)COCC1CN(C2CCC2)Cc2ncn(C)c21 (stereo not given),22.5
7,c1cn(Cc2nnc(C3CCN(C4CCNCC4)CC3)n2C2CC2)cn1,-1.79
8,CC1CN(CC2CCCCC2)CCN1c1ccc2nncn2n1 (stereo not given),41.2
9,CC(NCc1cnc(C2CCC2)s1)c1cccc(-n2ccnc2)c1 (stereo not given),-5.22
10,CC(=O)N1CCCC1CCc1ccnc(-c2cncnc2)c1 (stereo not given),-2.53
11,CCS(=O)(=O)N1CCCC2(CCCN2C(=O)c2cn(C)cn2)C1 (stereo not given),-8.17
12,CCNc1ncnc2c1CN(C1CCCNCC1)C(=O)CN2C (stereo not given),1.19
13,CCc1nc(C)c([C@H]2CN(C)C[C@@H]2C(=O)Nc2ccc(OC)cc2)[nH]1,-7.07
14,O=C1NCCCCC1SCc1coc(-c2ccccc2)n1 (stereo not given),-2.46
15,Cn1ccnc1CN1CCc2ncnc(N3CCCC(C#N)C3)c2CC1 (stereo not given),26.4
16,CCc1nc(C2CCCN(C(=O)NC3CC3)C2)no1 (stereo not given),-0.741
17,O=C(c1cnccn1)N1CCC2(CC1)CCN(Cc1ccccn1)C2=O,19.9
18,Fc1ccc2[nH]c([C@H]3CCN(C4CCOCC4)C3)nc2c1,4.63
19,Cc1cnn(CCNCc2ccccc2OCc2ccncc2)c1,3.09
20,COc1c(C2CCCN2Cc2nc(-c3ccco3)no2)c(C)nn1C (stereo not given),-2.62
21,COC(=O)C(C)(C)S(=O)(=O)c1ccc(Br)cc1,-1.38
22,CC(C)c1nccn1C(C)C(=O)NC1CCN(S(C)(=O)=O)CC1 (stereo not given),3.51
23,c1cncc(-c2noc(CN3CCCC(Cn4cncn4)C3)n2)c1 (stereo not given),9.23

row,Compound,cytotoxicity at 70.5 h [%]
1,Cc1nc(CN2C(=O)CCC23CCN(Cc2ccccn2)CC3)cs1,-6.85
2,CSCCC(=O)N1CCc2c(ncnc2N2CCOCC2)C1,-2.83
3,COc1ncc(NCc2ccc(Cl)c(Cl)c2)cc1C(N)=O,-5.01
4,Cc1ccccc1S(=O)(=O)NC(=O)C1(c2ccccc2)CCC1,-9.55
5,Cc1cccc(CN2C(=O)CCC23CCNCC3)n1,-9.48
6,CCn1nc(C)c(NC(=O)c2nnn(Cc3ccccc3)c2OC)c1C,-5.09
7,O=C(C1CC1)N1CC[C@H]2C(=O)N(c3ccsc3)CCO[C@H]2C1,-11.7
8,CN(Cc1ccncn1)C(=O)CCc1[nH]nc2c1CCCC2,-5.7
9,CC(=O)N1CC(=O)N(c2cnn(C)c2)CC12CCN(Cc1ccco1)C2 (stereo not given),-16.8
10,CNC(=O)c1cn[nH]c1C1CCN(Cc2sccc2C)C1 (stereo not given),-5.33
11,Cc1nc(CN2CCc3ncnc(-c4ccsc4)c3CC2)cs1,-9.47
12,O=C(NCCc1ccc(Cl)s1)NCc1nnc2n1CCC2,8.18
13,Cc1cc(N2CCCC2c2nnc3n2CCCCC3)nc(C)n1 (stereo not given),-3.38
14,CC(=O)NCC(=O)N1Cc2nccn2CC(Cn2cccn2)C1 (stereo not given),-4.71
15,CC(CO)NC(=O)Nc1ccc(S(C)(=O)=O)nc1 (stereo not given),-2.27
16,COc1ccc(C2(NC(=O)CCn3cncn3)CCCCC2)cc1,-6.29
17,Cc1ncc(-c2ccnc(N3CC[C@H](O)C3)n2)c(-c2cccnc2)n1,-6.52
18,O=C(Nc1ccc2c(c1)C(=O)NC2=O)c1cccs1,-4.03
19,CCN(CCSc1ccccc1)C(=O)c1cn([C@H]2CC[C@@H](N)CC2)nn1,-11.7
20,Cc1n[nH]c2nc(-c3cccc(Cl)c3)cc(C(=O)O)c12,9.1
21,CCC(=O)N1CCN(S(=O)(=O)c2cccc(F)c2)[C@H]2CS(=O)(=O)C[C@H]21,-13.7
22,CCCOc1ccc(Cl)cc1CNc1ncnc2oc(C)nc12,-6.3
23,O=C(Cc1ccc2c(c1)OCO2)N[C@@H]1CCNC[C@H]1O,-3.71

row,Compound,cytotoxicity at 70.5 h [%]
1,Cn1ccnc1COc1ccc(NC(=O)C2CCCO2)cc1 (stereo not given),3.57
2,CCc1n[nH]c(C2CN(Cc3csc(COC)n3)CCO2)n1 (stereo not given),-7.86
3,CC(C)N1CCC2(CCCN(Cc3ccc(F)cc3)C2=O)C1 (stereo not given),27.4
4,CC(C)Oc1cc(N2CC[C@@H](N3CCOCC3)[C@H](O)C2)nc(N)n1,-6.54
5,CCC[C@H]1CN(S(=O)(=O)c2ccccc2)C[C@@H]1N,16.4
6,COCC1CN(Cc2cc(C)on2)Cc2cn(CC3CCCC3)nc21 (stereo not given),-8.99
7,O=C(NCc1ccco1)c1cccc(C(=O)NCc2ccco2)n1,-20.3
8,Cc1nnc(NCc2ccc(F)cc2)o1,-2.93
9,CC(CCn1cccn1)NCc1n[nH]c2c1CCCCC2 (stereo not given),22.7
10,Cc1ccc(C)c(CS(=O)(=O)Cc2ccn(C)c(=O)c2)c1,-7.9
11,Cc1ccc(C(=O)NC(CN2CCCC2)c2ccccc2)c(=O)[nH]1 (stereo not given),-3.04
12,CCN1CCN2CCCN(S(=O)(=O)c3ccc(S(C)(=O)=O)cc3)C2C1=O (stereo not given),-7.94
13,CN(C)S(=O)(=O)N1CCCC(c2nccn2Cc2cccnc2)C1 (stereo not given),-4.26
14,COc1c(CNCC(O)c2cccc(F)c2)c(C)nn1C (stereo not given),-9.63
15,O=C(c1n[nH]c2c1CN(C1CCOC1)CC2)N1CCCC1 (stereo not given),-1.72
16,COc1ccc(-n2c(CCC(=O)O)nc3ccccc32)cc1CO,4.28
17,Cc1nc(C)n(CC2CN(Cc3cc(C#N)ccc3F)CCO2)n1 (stereo not given),-1.96
18,CC(C)Cn1ccnc1CNC(=O)NC(C)(C)c1nccs1,19.7
19,Cn1cc(CN2CCOCC3(C2)CN(c2ccccc2)C(=O)CO3)cn1 (stereo not given),-5.28
20,COc1cccc(CNCCc2cc(F)cc3c2OCOC3)c1,14.9
21,CC1(C(=O)NCCN2CCCCC2)CCCN1C(=O)c1ccccc1 (stereo not given),-3.21
22,Brc1cnc(NCc2ccccc2N2CCOCC2)nc1,-1.21
23,COc1cccc(C(=O)N2CCC(Nc3ccc(C)nn3)CC2)c1,1.25

row,Compound,cytotoxicity at 70.5 h [%]
1,CC(=O)NCCC1CCCCN1S(=O)(=O)c1cccc(F)c1 (stereo not given),19.6
2,N[C@H]1CN(CCOc2ccc(F)cc2)C[C@@H]1C1CC1,14.7
3,Cn1ncc(N2CCOCC2)c(Cl)c1=O,-7.54
4,CC(=O)N1CCCN(C(=O)c2ccc(Sc3ccccn3)cc2)CC1,-8.48
5,COc1ccc2c(CN3CCN(Cc4cccc(F)c4)CC3)n[nH]c2c1,-3.1
6,Cc1nc(N2CCC3(CCCN(CC4CC4)C3=O)C2)c2sccc2n1 (stereo not given),0.2
7,CNC(=O)c1cn[nH]c1C1(C)CCCN(Cc2ccccn2)C1 (stereo not given),-7.3
8,c1cc(-c2nccn2CCc2nc3c(s2)CCC3)ccn1,12.9
9,Cn1cnc(S(=O)(=O)N2CCO[C@H]3[C@@H](OCC4CC4)CC[C@@H]32)c1,11.1
10,Cc1noc(C2CCC3(CCN(C(=O)c4cnn(C)c4)CC3)O2)n1 (stereo not given),-10.3
11,CN(Cc1ccco1)C1CCC12CCN(C(=O)N1CCCC1)CC2 (stereo not given),-7.66
12,Cc1ccsc1-c1nccn1C1CC(=O)N(C(C)C)C1 (stereo not given),-5.72
13,CN1CCCC1c1ccnc(-c2ccccc2)n1 (stereo not given),-2.81
14,Cc1nc(CCN(C)C(=O)CN2CCCCCC2)no1,-9.68
15,Cc1ccc(C(F)(F)F)cc1NC(=O)C1CCCN1 (stereo not given),-8.7
16,COc1ccc(-n2ncc(C(=O)NCC3COC(C)(C)O3)c2N)cc1 (stereo not given),-5.98
17,Cc1cnc(CNC(=O)[C@@]23CCO[C@@H]2CCNC3)cn1,0.0687
18,CC(NC(=O)Nc1ccc(S(C)(=O)=O)cc1)c1ccc2c(c1)CC(=O)N2 (stereo not given),-7.73
19,O=C(CN(CC1CCC1)CC(F)(F)F)N1CCOCC1,-5.14
20,Cc1nn(C)c(N(C)C)c1CNCc1ccccc1Cn1ccnc1,-1.82
21,CC1CCCN(Cc2ccc(C(N)=O)cc2)C1 (stereo not given),0.459
22,CN(C)c1nc2c(c(N3CCC(O)CC3)n1)CN(CC1CCNC1)CC2 (stereo not given),-11.3
23,O=C1CC2(CCN(C(=O)c3ccccn3)CC2)Oc2c(Cl)cc(Cl)cc21,-6.72
